# In patent US6355799B1, “Substituted benzene compounds, process for their preparation, and herbicidal and defoliant compositions containing them” (ISK Americas Incorporated, priority 1997, dated 2002):
# What was measured:
# Format in all cases: in vivo
# [1] = system: upland rice (Oryza sp., var. Tebonnet, RICE); test: Pre-emerge test, crop safety; conditions: crop damage, pre-emerge, phytotoxicity rating 0-100 at 14 days after application
# How it was run: (§1)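 Applied at 15–1000 g ai/ha from acetone in 187 l/ha spray volume. Post-emergence applications included 0.25% v/v non-ionic surfactant and reached plants sown 8–21 days before. Pre-emergence applications were incorporated by surface watering. Efficacy or crop damage was rated on a 0–100 scale after 14 days.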
# [2] = system: field corn (Zea mays L., var. Dekalb 535, CORN); test: Pre-emerge test, crop safety; conditions: crop damage, pre-emerge, phytotoxicity rating 0-100 at 14 days after application
# How it was run: as §1
# [3] = system: redroot pigweed (Amaranthus retroflexus, AMARE); test: Pre-emerge test, greenhouse herbicide activity screening; conditions: pre-emerge, phytotoxicity rating 0-100 at 14 days after application
# How it was run: (§2)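 Herbicidal damage is scored 0 (none) to 100 (complete plant death) two weeks after a simulated field spray. Rates span 15–1000 g ai/ha, delivered in acetone at 187 l/ha. For post-emergence treatments, plants have 2–3 leaves and the spray carries 0.25% v/v non-ionic surfactant.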
# [4] = system: large crabgrass (Digitaria sanguinalis, DIGSA); test: as above; conditions: pre-emerge, phytotoxicity rating 0-100 at 14 days after application
# How it was run: as §2
# [5] = system: ivyleaf morningglory (Ipomoea hederacea, IPOHE); test: as above; conditions: pre-emerge, phytotoxicity rating 0-100 at 14 days after application
# How it was run: as §2
# [6] = system: velvetleaf (Abutilon theophrasti, ABUTH); test: as above; conditions: pre-emerge, phytotoxicity rating 0-100 at 14 days after application
# How it was run: as §2
# [7] = system: lambsquarters (Chenopodium album, CHEAL); test: as above; conditions: pre-emerge, phytotoxicity rating 0-100 at 14 days after application
# How it was run: as §2
# [8] = system: green foxtail (Setaria viridis, SETVI); test: as above; conditions: pre-emerge, phytotoxicity rating 0-100 at 14 days after application
# How it was run: as §2
# [9] = system: barnyardgrass (Echinochloa crus-galli, ECHCG); test: as above; conditions: pre-emerge, phytotoxicity rating 0-100 at 14 days after application
# How it was run: as §2
# [10] = system: sicklepod (Cassia obtusifolia, CASOB); test: as above; conditions: pre-emerge, phytotoxicity rating 0-100 at 14 days after application
# How it was run: as §2
# [11] = system: upland rice (Oryza sp., var. Tebonnet, RICE); test: Post-emerge test, crop safety; conditions: post-emerge, crop damage rating 0-100 at 14 days after application
# How it was run: as §2
# [12] = system: field corn (Zea mays L., var. Dekalb 535, CORN); test: Post-emerge test, crop safety; conditions: post-emerge, crop damage rating 0-100 at 14 days after application
# How it was run: as §2
# [13] = system: johnsongrass (Sorghum halepense, SORHA); test: Post-emerge test, greenhouse herbicide activity screening; conditions: post-emerge, phytotoxicity rating 0-100 at 14 days after application
# How it was run: (§3)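 Sandy loam pots; pre-emerge: sown 1 d pre-spray, surface-watered after, then bottom-watered. Post-emerge: sown 8–21 d before, 2–3 leaf stage, + 0.25% v/v NIS, bottom-watered. Acetone, 187 l/ha track spray, 15–1000 g ai/ha. 0–100 injury score, day 14.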
# [14] = system: large crabgrass (Digitaria sanguinalis, DIGSA); test: as above; conditions: post-emerge, phytotoxicity rating 0-100 at 14 days after application
# How it was run: as §3
# [15] = system: ivyleaf morningglory (Ipomoea hederacea, IPOHE); test: as above; conditions: post-emerge, phytotoxicity rating 0-100 at 14 days after application
# How it was run: as §3
# [16] = system: velvetleaf (Abutilon theophrasti, ABUTH); test: as above; conditions: post-emerge, phytotoxicity rating 0-100 at 14 days after application
# How it was run: as §3
# [17] = system: lambsquarters (Chenopodium album, CHEAL); test: as above; conditions: post-emerge, phytotoxicity rating 0-100 at 14 days after application
# How it was run: as §3
# [18] = system: redroot pigweed (Amaranthus retroflexus, AMARE); test: as above; conditions: post-emerge, phytotoxicity rating 0-100 at 14 days after application
# How it was run: as §3
# [19] = system: green foxtail (Setaria viridis, SETVI); test: as above; conditions: post-emerge, phytotoxicity rating 0-100 at 14 days after application
# How it was run: as §3
# [20] = system: barnyardgrass (Echinochloa crus-galli, ECHCG); test: as above; conditions: post-emerge, phytotoxicity rating 0-100 at 14 days after application
# How it was run: as §3
# [21] = system: sicklepod (Cassia obtusifolia, CASOB); test: as above; conditions: post-emerge, phytotoxicity rating 0-100 at 14 days after application
# How it was run: as §3
structure (smiles),measurement,setting,value
COc1cccc(COC(=O)Nc2c(C)c(Cl)cc(F)c2-n2c(=O)cc(C(F)(F)F)n(C)c2=O)c1 [4-65],Pre-emerge Herbicidal Activity RICE,[1]; rate 63 g ai/ha,65
same,Pre-emerge Herbicidal Activity RICE,[1]; rate 250 g ai/ha,90
same,Pre-emerge Herbicidal Activity CORN,[2]; rate 63 g ai/ha,55
same,Pre-emerge Herbicidal Activity CORN,[2]; rate 250 g ai/ha,75
same,Pre-emerge Herbicidal Activity AMARE,[3]; rate 63 g ai/ha,100
same,Pre-emerge Herbicidal Activity AMARE,[3]; rate 250 g ai/ha,100
same,Pre-emerge Herbicidal Activity DIGSA,[4]; rate 63 g ai/ha,100
same,Pre-emerge Herbicidal Activity DIGSA,[4]; rate 250 g ai/ha,100
same,Pre-emerge Herbicidal Activity IPOHE,[5]; rate 63 g ai/ha,90
same,Pre-emerge Herbicidal Activity IPOHE,[5]; rate 250 g ai/ha,100
same,Pre-emerge Herbicidal Activity ABUTH,[6]; rate 63 g ai/ha,100
same,Pre-emerge Herbicidal Activity ABUTH,[6]; rate 250 g ai/ha,100
same,Pre-emerge Herbicidal Activity CHEAL,[7]; rate 63 g ai/ha,100
same,Pre-emerge Herbicidal Activity CHEAL,[7]; rate 250 g ai/ha,100
same,Pre-emerge Herbicidal Activity SETVI,[8]; rate 63 g ai/ha,100
same,Pre-emerge Herbicidal Activity SETVI,[8]; rate 250 g ai/ha,100
same,Pre-emerge Herbicidal Activity ECHCG,[9]; rate 63 g ai/ha,80
same,Pre-emerge Herbicidal Activity ECHCG,[9]; rate 250 g ai/ha,90
same,Pre-emerge Herbicidal Activity CASOB,[10]; rate 63 g ai/ha,80
same,Pre-emerge Herbicidal Activity CASOB,[10]; rate 250 g ai/ha,90
same,Post-emerge Herbicidal Activity RICE,[11]; 63 g ai/ha,70
same,Post-emerge Herbicidal Activity RICE,[11]; 250 g ai/ha,80
same,Post-emerge Herbicidal Activity CORN,[12]; 63 g ai/ha,80
same,Post-emerge Herbicidal Activity CORN,[12]; 250 g ai/ha,90
same,Post-emerge Herbicidal Activity SORHA,[13]; 63 g ai/ha,70
same,Post-emerge Herbicidal Activity SORHA,[13]; 250 g ai/ha,80
same,Post-emerge Herbicidal Activity DIGSA,[14]; 63 g ai/ha,60
same,Post-emerge Herbicidal Activity DIGSA,[14]; 250 g ai/ha,80
same,Post-emerge Herbicidal Activity IPOHE,[15]; 63 g ai/ha,100
same,Post-emerge Herbicidal Activity IPOHE,[15]; 250 g ai/ha,100
same,Post-emerge Herbicidal Activity ABUTH,[16]; 63 g ai/ha,100
same,Post-emerge Herbicidal Activity ABUTH,[16]; 250 g ai/ha,100
same,Post-emerge Herbicidal Activity CHEAL,[17]; 63 g ai/ha,100
same,Post-emerge Herbicidal Activity CHEAL,[17]; 250 g ai/ha,100
same,Post-emerge Herbicidal Activity AMARE,[18]; 63 g ai/ha,100
same,Post-emerge Herbicidal Activity AMARE,[18]; 250 g ai/ha,100
same,Post-emerge Herbicidal Activity SETVI,[19]; 63 g ai/ha,100
same,Post-emerge Herbicidal Activity SETVI,[19]; 250 g ai/ha,100
same,Post-emerge Herbicidal Activity ECHCG,[20]; 63 g ai/ha,60
same,Post-emerge Herbicidal Activity ECHCG,[20]; 250 g ai/ha,70
same,Post-emerge Herbicidal Activity CASOB,[21]; 63 g ai/ha,100
same,Post-emerge Herbicidal Activity CASOB,[21]; 250 g ai/ha,100
Cc1c(Cl)cc(F)c(-n2c(=O)cc(C(F)(F)F)n(C)c2=O)c1NC(=O)SCc1ccccc1 [4-66],Pre-emerge Herbicidal Activity RICE,[1]; rate 63 g ai/ha,20
same,Pre-emerge Herbicidal Activity RICE,[1]; rate 250 g ai/ha,65
same,Pre-emerge Herbicidal Activity CORN,[2]; rate 63 g ai/ha,0
same,Pre-emerge Herbicidal Activity CORN,[2]; rate 250 g ai/ha,50
same,Pre-emerge Herbicidal Activity AMARE,[3]; rate 63 g ai/ha,100
same,Pre-emerge Herbicidal Activity AMARE,[3]; rate 250 g ai/ha,100
same,Pre-emerge Herbicidal Activity DIGSA,[4]; rate 63 g ai/ha,80
same,Pre-emerge Herbicidal Activity DIGSA,[4]; rate 250 g ai/ha,100
same,Pre-emerge Herbicidal Activity IPOHE,[5]; rate 63 g ai/ha,60
same,Pre-emerge Herbicidal Activity IPOHE,[5]; rate 250 g ai/ha,90
same,Pre-emerge Herbicidal Activity ABUTH,[6]; rate 63 g ai/ha,100
same,Pre-emerge Herbicidal Activity ABUTH,[6]; rate 250 g ai/ha,100
same,Pre-emerge Herbicidal Activity CHEAL,[7]; rate 63 g ai/ha,100
same,Pre-emerge Herbicidal Activity CHEAL,[7]; rate 250 g ai/ha,100
same,Pre-emerge Herbicidal Activity SETVI,[8]; rate 63 g ai/ha,70
same,Pre-emerge Herbicidal Activity SETVI,[8]; rate 250 g ai/ha,100
same,Pre-emerge Herbicidal Activity ECHCG,[9]; rate 63 g ai/ha,30
same,Pre-emerge Herbicidal Activity ECHCG,[9]; rate 250 g ai/ha,90
same,Pre-emerge Herbicidal Activity CASOB,[10]; rate 63 g ai/ha,30
same,Pre-emerge Herbicidal Activity CASOB,[10]; rate 250 g ai/ha,70
same,Post-emerge Herbicidal Activity RICE,[11]; 63 g ai/ha,30
same,Post-emerge Herbicidal Activity RICE,[11]; 250 g ai/ha,70
same,Post-emerge Herbicidal Activity CORN,[12]; 63 g ai/ha,15
same,Post-emerge Herbicidal Activity CORN,[12]; 250 g ai/ha,60
same,Post-emerge Herbicidal Activity SORHA,[13]; 63 g ai/ha,0
same,Post-emerge Herbicidal Activity SORHA,[13]; 250 g ai/ha,50
same,Post-emerge Herbicidal Activity DIGSA,[14]; 63 g ai/ha,10
same,Post-emerge Herbicidal Activity DIGSA,[14]; 250 g ai/ha,50
same,Post-emerge Herbicidal Activity IPOHE,[15]; 63 g ai/ha,100
same,Post-emerge Herbicidal Activity IPOHE,[15]; 250 g ai/ha,100
same,Post-emerge Herbicidal Activity ABUTH,[16]; 63 g ai/ha,100
same,Post-emerge Herbicidal Activity ABUTH,[16]; 250 g ai/ha,100
same,Post-emerge Herbicidal Activity CHEAL,[17]; 63 g ai/ha,80
same,Post-emerge Herbicidal Activity CHEAL,[17]; 250 g ai/ha,100
same,Post-emerge Herbicidal Activity AMARE,[18]; 63 g ai/ha,80
same,Post-emerge Herbicidal Activity AMARE,[18]; 250 g ai/ha,100
same,Post-emerge Herbicidal Activity SETVI,[19]; 63 g ai/ha,10
same,Post-emerge Herbicidal Activity SETVI,[19]; 250 g ai/ha,60
same,Post-emerge Herbicidal Activity ECHCG,[20]; 63 g ai/ha,0
same,Post-emerge Herbicidal Activity ECHCG,[20]; 250 g ai/ha,40
same,Post-emerge Herbicidal Activity CASOB,[21]; 63 g ai/ha,20
same,Post-emerge Herbicidal Activity CASOB,[21]; 250 g ai/ha,90
